The text below walks through data of patent US11485701B2, “Insect repellent compounds and compositions, and methods thereof” (Iowa State University Research Foundation, Inc., priority 2016, dated 2022).

Experiment [1] relates to Northern house mosquitoes (Culex pipiens). Kind of experiment: Short-term spatial repellency, static air repellency chamber. As to conditions: for pest or weed control at 0.5 %: Culex pipiens. The class given is in vivo. As for the experimental part:
(§1) Northern house mosquitoes (Culex pipiens), a primary carrier of West Nile virus in eastern North America, were obtained from an established colony in the Medical Entomology Laboratory in the Department of Entomology at Iowa State University of Science and Technology, Ames Iowa. Mosquito rearing was performed by established protocols that are maintained by the Medical Entomology Laboratory. Repellency bioassays were performed with adult female mosquitoes that emerged 5-7 days previously. […] Mosquitoes, prior to testing, were held at 27° C., 80% relative humidity, and on a 16:8 hr light:dark photoperiod.
Repellency bioassays were performed using a static air repellency chamber, which has been described in various publications by the Pesticide Toxicology Laboratory at Iowa State University of Science and Technology, Ames, Iowa Briefly, a 9-cm×60-cm glass tube was used to monitor the distribution of mosquitoes at 15 min, 30 min, 60 min, 90 min, 120 min, and 150 min after introducing mosquitoes into the static air repellency chamber. […] One end of the spatial chamber contained a treated filter paper, whereas the other (untreated) end of the spatial chamber was not treated with compound. Controls contained filter papers treated with acetone, the solvent used to make the 0.5% solutions. Each end of the repellency chamber was secured with a 100-mm Petri dish using celluloid tape. After securing the petri dishes with corresponding treated or untreated filter papers to the spatial chamber, mosquitoes were anesthetized with carbon dioxide, and approximately 20 female mosquitoes were placed into each repellency chamber for one replicate. The opening of the spatial repellency chamber was secured with celluloid tape to prevent their escape. Chambers were oriented in opposite directions from the previous replicate to account for any directional effect. Four replicates were performed for data analysis for both the control and treatment groups.
Data for spatial repellency, the percentage repellency, is reported at each of the respective time points in the figures and tables mentioned below. The percentage spatial repellency is the examination of the distribution of mosquitoes and is calculated using the following equation: […]

The test system is the same in experiment [2]. In words: Long-term spatial repellency, static air repellency chamber, filter papers air-dried 5 hours. The conditions noted are these: for pest or weed control at 0.5 %: Culex pipiens. The class given is in vivo. On the procedure:
as §1, with “were” for “emerged”, “post-emergent.” for “previously.”
Repellency bioassays were performed using a static air repellency chamber, which has been described in various publications by the Pesticide Toxicology Laboratory at Iowa State University of Science and Technology, Ames, Iowa Briefly, a 9-cm×60-cm glass tube was used to monitor the distribution of mosquitoes at 15 min, 30 min, 60 min, 90 min, 120 min, and 150 min after introducing mosquitoes into the static air repellency chamber. Treated filter papers were treated with 1 mL of 0.5% solution in acetone of the terpenoid analogs created in the lab and were exposed to ambient air for 5 hours before they were introduced into the spatial chamber for testing. This is a slight modification of the method described in Example 2, so as to evaluate the residual repellent character of these compounds on a treated surface after 5 hours. One end of the spatial chamber contained a treated filter paper, whereas the other (untreated) end of the spatial chamber was not treated with compound. Controls contained filter papers treated with acetone, the solvent used to make the 0.5% solutions. Each end of the repellency chamber was secured with a 100-mm Petri dish using celluloid tape. After securing the petri dishes with corresponding treated or untreated filter papers to the spatial chamber, mosquitoes were anesthetized with carbon dioxide, and approximately 20 female mosquitoes were placed into each repellency chamber for one replicate. The opening of the spatial repellency chamber was secured with celluloid tape to prevent their escape. Chambers were oriented in opposite directions from the previous replicate to account for any directional effect. Four replicates were performed for data analysis for both the control and treatment groups.
Data for spatial repellency, the percentage repellency, is reported at each of the respective time points in the figures and tables mentioned below in this disclosure. The percentage spatial repellency is the examination of the distribution of mosquitoes and is calculated using the following equation: […]

The mark [3] stands for this setting: 0.25 h, filter paper, 1 mL of 0.5% solution in acetone, air-dried 15 min, 15 min after introduction, read-out: Short-term Percentage repellency 15 min.
[4] abbreviates: 1.5 h, filter paper, 1 mL of 0.5% solution in acetone, air-dried 15 min, 90 min, read-out: Short-term Percentage repellency 90 min.
Where [5] appears, read: 2.5 h, filter paper, 1 mL of 0.5% solution in acetone, air-dried 15 min, 150 min, read-out: Short-term Percentage repellency 150 min.
[6] abbreviates: 0.25 h, 1 mL of 0.5% solution in acetone, air-dried 5 hours, 15 min, read-out: Long-term Percentage repellency 15 min.
Where [7] appears, read: 1.5 h, 1 mL of 0.5% solution in acetone, air-dried 5 hours, 90 min, read-out: Long-term Percentage repellency 90 min.
Setting [8] is: 2.5 h, 1 mL of 0.5% solution in acetone, air-dried 5 hours, 150 min, read-out: Long-term Percentage repellency 150 min.

SMILES strings stand for the structures. Counter-ions that a name gives are not always drawn.

Take `CC(C)=CCCC(C)CCOC(=O)C1CC(C)C1` (stereo not drawn) [Compound 3068, citronellyl 3-methylcyclobutanecarboxylate]: the pest or weed control at 0.5 % turned out to be 22.5% in experiment [1] (setting [3]); 32.5% in experiment [1] (setting [4]); 42.5% in experiment [1] (setting [5]); 22.5% in experiment [2] (setting [6]); 32.5% in experiment [2] (setting [7]); 42.5% in experiment [2] (setting [8]).

With `CC(C)=CCCC(C)CCOC(=O)C(F)F` (stereo not drawn) [Compound 2192, citronellyl difluoroacetate], the pest or weed control at 0.5 % in experiment [1] (0.25 h, read-out: Short-term Percentage repellency 15 min) came to 42.5%; in experiment [1] (1.5 h, read-out: Short-term Percentage repellency 90 min), 95%; in experiment [1] (2.5 h, read-out: Short-term Percentage repellency 150 min), 95%; in experiment [2] (0.25 h, read-out: Long-term Percentage repellency 15 min), 50%; in experiment [2] (1.5 h, read-out: Long-term Percentage repellency 90 min) it was 72.5%; in experiment [2] (2.5 h, read-out: Long-term Percentage repellency 150 min) it was 65%.

As to `CC(C)=CCCC(C)CCOC(=O)C(C)C` (stereo not drawn) [Compound 2204, citronellyl isobutyrate], the pest or weed control at 0.5 % in experiment [1] (setting [3]) was 25%; in experiment [1] (setting [4]), 80%; in experiment [1] (setting [5]) it was 90%; in experiment [2] (setting [6]), -5%; in experiment [2] (setting [7]), 7.5%; in experiment [2] (setting [8]), 10%.

Take `O=C(OC/C=C/c1ccccc1)C1CCC1` [Compound 2039, cinnamyl cyclobutanecarboxylate]: the pest or weed control at 0.5 % in experiment [1] (setting [3]) amounted to 30%; in experiment [2] (setting [6]) it was 40%; in experiment [2] (setting [7]), 57.5%; in experiment [2] (setting [8]), 60%.

As for `CC(C)=CCCC(C)CCOC(=O)CC(C)C` (stereo not drawn) [Compound 1034B, citronellyl isovalerate], the pest or weed control at 0.5 % in experiment [1] (setting [3]) was determined as 17.5%; in experiment [1] (setting [4]), 77.5%; in experiment [1] (setting [5]) it was 82.5%; in experiment [2] (setting [6]), 30%; in experiment [2] (setting [7]), 30%; in experiment [2] (setting [8]), 32.5%.

For the molecule `Cc1ccc(C(C)C)c(OC(=O)CC(C)C)c1` [Compound 1055B, thymyl isovalerate], the pest or weed control at 0.5 % in experiment [1] (setting [3]) was found to be 12.5%; in experiment [1] (setting [4]), 65%; in experiment [1] (setting [5]), 77.5%; in experiment [2] (setting [6]) it was 0%; in experiment [2] (setting [7]), 22.5%; in experiment [2] (setting [8]) it was 27.5%.

As to `CC(C)=CCC/C(C)=C\COC(=O)C1CC1` [Compound 2023B, neryl cyclopropanecarboxylate], the pest or weed control at 0.5 % stood at 10% in experiment [1] (setting [3]); 52.5% in experiment [1] (setting [4]); 60% in experiment [1] (setting [5]); 10% in experiment [2] (setting [6]); 52.5% in experiment [2] (setting [7]); 60% in experiment [2] (setting [8]).

On to `CC(C)=CCCC(C)CCOC(=O)C1CC(=O)C1` (stereo not drawn) [Compound 3067, citronellyl 3-oxocyclobutanecarboxylate], for which the pest or weed control at 0.5 % in experiment [1] (setting [3]) worked out at 47.5%; in experiment [1] (setting [4]) it was 60%; in experiment [1] (setting [5]), 62.5%; in experiment [2] (setting [6]) it was 12.5%; in experiment [2] (setting [7]), 0%; in experiment [2] (setting [8]), 25%.

With `Cc1ccc(C(C)C)c(OC(=O)C(C)(C)F)c1` [Compound 1121A, thymyl 2-fluoroisobutyrate], the pest or weed control at 0.5 % stood at 77.5% in experiment [1] (setting [3]); 97.5% in experiment [1] (setting [4]); 97.5% in experiment [1] (setting [5]); 22.5% in experiment [2] (setting [6]); 50% in experiment [2] (setting [7]); 65% in experiment [2] (setting [8]).

As for `CC(C)=CCCC(C)CCOC(=O)C(C)(C)C` (stereo not drawn) [Compound 1036A, citronellyl pivalate], the pest or weed control at 0.5 % stood at 25% in experiment [1] (setting [3]); 90% in experiment [1] (setting [4]); 92.5% in experiment [1] (setting [5]); 27.5% in experiment [2] (setting [6]); 17.5% in experiment [2] (setting [7]); 20% in experiment [2] (setting [8]).

For the molecule `CC(=O)CCC(=O)OCCC(C)CCC=C(C)C` (stereo not drawn) [Compound 2183, citronellyl levulinate], the pest or weed control at 0.5 % in experiment [1] (setting [3]) amounted to 35%; in experiment [1] (setting [4]), 45%; in experiment [1] (setting [5]) it was 55%; in experiment [2] (setting [6]) it was 35%; in experiment [2] (setting [7]) it was 45%; in experiment [2] (setting [8]) it was 55%.

Regarding `CC(C)=CCCC(C)CCOC(=O)c1ccco1` (stereo not drawn) [Compound 2186, citronellyl 2-furoate], the “Short-term repellency at low concentration, in words” value in experiment [1] (filter paper treated with 0.1%, FIG. 6) is reported as “significant levels of repellency”. The pest or weed control at 0.5 % in experiment [2] (setting [6]) is 25%; in experiment [2] (setting [7]), 42.5%; in experiment [2] (setting [8]), 40%.

For `CC1CCC(C(C)C)C(OC(=O)C2CC2)C1` (stereo not drawn) [Compound 1033B, menthyl cyclopropanecarboxylate], the “Short-term spatial repellency, in words” value in experiment [1] (1 mL of 0.5% solution in acetone) is “very effective spatial repellent”. In addition, the “Short-term percentage repellency 30 min” value in experiment [1] (1 mL of 0.5% solution in acetone, 30 minutes) turned out to be 47.5%. For the same molecule, the “Short-term percentage repellency 120 min” value in experiment [1] (1 mL of 0.5% solution in acetone, 120 minutes) is listed as 95%. Further, the pest or weed control at 0.5 % in experiment [1] (setting [3]) was 15%; in experiment [1] (setting [4]), 95%; in experiment [1] (setting [5]) it was 92.5%; in experiment [2] (setting [6]), 65%; in experiment [2] (setting [7]) it was 71.7%; in experiment [2] (setting [8]) it was 82.5%. Further, the “Long-term repellency, in words” value in experiment [2] (0.5% solution, air-dried 5 hours) was “much greater than DEET”.

`Cc1ccc(C(C)C)c(OC=O)c1` [Compound 1107A, thymyl formate]: the pest or weed control at 0.5 % in experiment [1] (setting [3]) came to 35%; in experiment [1] (setting [4]), 80%; in experiment [1] (setting [5]), 75%; in experiment [2] (setting [6]) it was 25%; in experiment [2] (setting [7]), 17.5%; in experiment [2] (setting [8]) it was 22.5%.
